Results taken from patent US5096929A, “2-amino-1,2,3,4-tetrahydronaphthalene derivatives with cardiovascular activity, process for their preparation and pharmaceutical compositions containing them” (Chiesi Farmaceutici S.p.A., priority 1989, dated 1992).
pEC50: −log10 of the molar value. Where a name gives a salt, the structure may show the parent alone. Read-outs that look alike come from different tables or passages of the source. Each block holds one compound with its values, some of them ahead of it.

Columns and labels:
isolated rat left atrium = experiment: Isolated rat left atrium: inotropic activity (force); settings: for pEC50 / Emax: Rattus norvegicus; for pEC50: read-out: EC50, left atrium (force); for Activity in isolated rat left atrium and right atrium (in words): Table I and text; for Inotropic activity of diastereoisomeric mixture (in words): rat isolated left atrium
Description: (§1) The inotropic and chronotropic effects of compound (Ia) of the invention were determined in vitro using, respectively, isolated rat left atrium and right atrium.
Left atrium:inotrocic activity
The atria were subjected to a 0.5 g starting tension and suspended in a bath containing aerated Krebs-Henseleit j solution with 95% O2 and […] kept at 32.C. The preparation was stimulated at a 4 Hz frequency with pulses during 5 msec each. The contraction strength was detected by an isometric transducer and recorded on a microndynamometer.
(§2) The results were expressed as the percentage of the response obtained with a maximal dose ([…]) of isoproterenol which was determined at the beginning of the test. In Table 1 the potency (EC50=effective concentration inducing the 50% of the maximal effect) and the relative intrinsic activity (expressed as α and compared with that of isoproterenol, taken=1) are shown.
(§3) The effects of the compounds were evaluated in rat isolated atria according to the previously described method.
(§4) Table 3. Potency (EC50) and intrinsic activity (α;isoproterenol=1) on the isolated rat left atrium (Inotropic activity) and right atrium (chronotropic activity).

[1] = system: isolated rat right atrium; experiment: Isolated rat right atrium: chronotropic activity (frequency); settings: Rattus norvegicus; for pEC50: read-out: EC50, right atrium (frequency)
Description: as §1
Right atrium:chronotrpic activity
The preparation was prepared in the same way and under the same conditions as described above, but was not subjected to electric stimulation. Frequency was monitored by a cardiotachograph.
as §2, §3, §4

[2] = target: T1, beta-2 adrenergic receptors (Cavia porcellus, UniProt Q8K4Z4); experiment: Isolated guinea-pig trachea: interactions with beta-2 adrenergic receptors (relaxation of carbachol contraction); settings: for pEC50: guinea-pig trachea, carbachol 3×10^-7 M
T1 construct: Trachea strips were isolated and prepared according to the method described by Emerson J and Machay D; from tissue; host or cells: guinea-pig isolated trachea strips
Description: The selectivity of this interaction has been studied by evaluating the effects on beta-2 adrenergic receptors, in the guinea-pig isolated trachea, using CHF 1026 as reference compound.
Isolated guinea-pig trachea: interactions with beta-2 adrenergic receptors
Trachea strips were isolated and prepared according to the method described by Emerson J and Machay D in J Pharm Pharmacol 1979, 31, 798, immersed in Krebs-Henseleit solution (37° C., 95% O2 +5% CO2), subjected to an initial tension of 1 g and contracted with carbachol (3×10^-7 M).
Dose-response curves of CHF 1255 and CHF 1026 were recorded in the absence and in the presence of 10^-6 M propranolol, used as antagonist and added to the bath before the stimulation with carbachol.
The obtained results are shown in Table 2, expressed as potency (EC50 calculated from t he dose--response curve) and intrinsic activity (α, isoproternol=1).

[3] = system: arterial rat hind quarter; experiment: Rat perfused hind quarter; vasodilating action; settings: for Emax: Rattus norvegicus; for ED40, K+ induced contraction / ED40, norepinephrine induced contraction / ED40, 5-HT induced contraction: dose decreasing contraction by 40%; for ED40, K+ induced contraction: K+ 40 mM; for ED40, 5-HT induced contraction: serotonin 5×10^-7 M
Description: Rat perfused hind quarter; vasodilating action
The vasodilating effect of CHF 1255 has been evaluated in the arterial rat hind quarter perfused with Krebs-Henseleit solution at constant flow.
The increase of arterial resistance was induced by K^+ -enriched solution (40 mM), norepinephrine (5×10^-6 M) and serotonin (5×10^-7 M).
Papaverine and prazosin, powerful α-blocker vasodilator, were used as reference compounds.
ED40 =dose (moles) decreasing of 40% the contraction induced by the agonist. 100% was considered as the complete recduction of contraction.

beta-1 = settings: background art, cited from earlier work
anesthetized dog = experiment: Anesthetized dog: cardiovascular activity; format: in vivo, Beagle dog; settings: anesthetized dog, i.v.
Description: The interesting hemodynamic properties of CHF 1255 were confirmed in vivo in the anesthetized dog.
Anesthesized dog: cardiovascular activity
Beagle dogs were anesthetized with sodium pentobarbital (30 mg/kg iv) thoracotomized and monitored by recording cardiocirculatory parameters.
CHF 1255 and the reference drugs (amrinone and xamoterol) were administered i.v. in a bolus.
CHF 1255 at the doses of 0.3-1.3 μmoles/kg i.v. confirmed its activity in changing hemodynamic parameters.

[4] = Table I, isolated rat left atrium, 4 Hz stimulation, confidence limits in parentheses
[5] = Table I, isoproterenol taken=1, confidence limits in parentheses, read-out: α (intrinsic activity), left atrium (force)
[6] = Table I, isolated rat right atrium, confidence limits in parentheses
[7] = Table I, isoproterenol taken=1, confidence limits in parentheses, read-out: α (intrinsic activity), right atrium (frequency)
[8] = Table 3, inotropic activity, rat left atrium
[9] = Table 3, isoproterenol=1, read-out: α, left atrium (force)
[10] = Table 3, chronotropic activity, rat right atrium
[11] = Table 3, isoproterenol=1, read-out: α, right atrium (frequency)

T1 sequence (Q8K4Z4 whole entry): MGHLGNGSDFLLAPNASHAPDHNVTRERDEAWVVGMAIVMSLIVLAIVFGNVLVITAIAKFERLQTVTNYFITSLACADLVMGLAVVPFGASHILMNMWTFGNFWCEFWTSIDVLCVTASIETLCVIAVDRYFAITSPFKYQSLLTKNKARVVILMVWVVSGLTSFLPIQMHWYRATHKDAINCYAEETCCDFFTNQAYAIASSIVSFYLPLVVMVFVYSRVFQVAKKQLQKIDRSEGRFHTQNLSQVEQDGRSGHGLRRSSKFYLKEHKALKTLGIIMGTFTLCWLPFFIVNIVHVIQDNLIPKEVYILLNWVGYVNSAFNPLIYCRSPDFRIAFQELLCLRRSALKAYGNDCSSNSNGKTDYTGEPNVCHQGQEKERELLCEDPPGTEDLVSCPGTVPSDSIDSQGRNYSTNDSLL

pEC50 (isolated rat left atrium; [4]): 6.05 | pEC50 [1, 6]: 6.89 | Emax ([2]; guinea pig, isoproterenol=1, without propranolol, read-out: α in absence of propranolol): 99% | pEC50 ([2]; with 10^-6 M propranolol, read-out: EC50 in presence of propranolol): 3.89 | pEC50 ([2]; without propranolol, read-out: EC50 in absence of propranolol): 6.64 | α in presence of propranolol ([2]; isoproterenol=1, with 10^-6 M propranolol): 0.94
SMILES: CC(CCc1ccc(O)cc1)NC1CCc2cc(O)c(O)cc2C1 (centres unmarked) [CHF 1026, 2-[1-(4-hydroxyphenyl)-but-3-ylamino]-6,7-dihydroxy-1,2,3,4-tetrahydronaphthalene, reference compound]
Emax (isolated rat left atrium; [5]): 81% | Emax [1, 7]: 86% | Effect of propranolol on dose-response curve ([2]; 10^-6 M propranolol): parallelely shifted to the right, showing a competitive antagonistic action

SMILES: COc1ccc2c(c1OC)CCC(NCC(O)c1ccc(O)cc1)C2 (centres unmarked) [CHF 1296]
Activity in isolated rat left atrium and right atrium (in words) (isolated rat left atrium): completely inactive

SMILES: COc1ccc2c(c1OC)CCC(NCC(O)c1cccc(O)c1)C2 (centres unmarked) [CHF 1297]
Activity in isolated rat left atrium and right atrium (in words) (isolated rat left atrium): completely inactive

SMILES: COc1ccc2c(c1OC)CCC(N[C@H](C)[C@@H](O)c1ccc(O)cc1)C2 (some centres unmarked) [CHF 1388, (αR,βS)-5,6-dimethoxy-2-[2-(4-hydroxyphenyl)-2-hydroxy-1-methylamino]-2-hydroxy-I-methylethylamino]--,2,3,4-tetrahydronaphthalene hydrochloride]
Inotropic activity of diastereoisomeric mixture (in words) (isolated rat left atrium): did not show any inotropic activity | Contribution to vasodilating activity of CHF 1255 [3]: vasodilating activity of CHF 1255 is mainly due to CHF 1388

SMILES: COc1ccc2c(c1OC)CCC(N[C@@H](C)[C@H](O)c1ccc(O)cc1)C2 (some centres unmarked) [CHF 1389, (αS, βR)-5,6-Dimethoxy-2-[2-(4-hydroxyphenyl)-2-hydroxy-1-methylethylemino]-1,2,3,4-tetrahydronaphthalene hydrochloride]
Inotropic activity of diastereoisomeric mixture (in words) (isolated rat left atrium): as effective as CHF 1255 in the rat isolated left atrium

pEC50 (isolated rat left atrium; [8]): 4.58 | pEC50 [1, 10]: 3.81
SMILES: Nc1cc(-c2ccncc2)c[nH]c1=O [amrinone]
Emax (isolated rat left atrium; [9]): 29% | Emax [1, 11]: 147%

pEC50 (isolated rat left atrium; [8]): 5.92 | pEC50 (isolated rat left atrium; [4]): 5.92 | pEC50 [1, 10]: 5.72 | pEC50 [1, 6]: 5.72
SMILES: NCCc1ccc(O)c(O)c1 [dopamine]
Emax (isolated rat left atrium; [9]): 95% | Emax (isolated rat left atrium; [5]): 95% | Emax [1, 11]: 106% | Emax [1, 7]: 106%

SMILES: COc1ccc(Cc2nccc3cc(OC)c(OC)cc23)cc1OC [papaverine, Papaverine]
Activity against contraction by the different agents (in words) ([3]; K+, norepinephrine, serotonin): same ED40 for the different experimental conditions | Emax ([3]; read-out: α (efficacy), 5-HT induced contraction): 90% | Emax ([3]; read-out: α (efficacy), K+ induced contraction): 90% | Emax ([3]; read-out: α (efficacy), norepinephrine induced contraction): 95% | ED40, K+ induced contraction [3]: 6.5e-08 mol | ED40, norepinephrine induced contraction ([3]; norepinephrine 5×10^-6 M): 4.5e-08 mol | ED40, 5-HT induced contraction [3]: 5e-08 mol

SMILES: COc1cc2nc(N3CCN(C(=O)c4ccco4)CC3)nc(N)c2cc1OC [prazosin]
Emax ([3]; 100% = complete reduction, norepinephrine 5×10^-6 M, read-out: α (efficacy), norepinephrine induced contraction): 96% | ED40, K+ induced contraction [3]: inactive | ED40, norepinephrine induced contraction ([3]; norepinephrine 5×10^-6 M): 1.5e-11 mol | ED40, 5-HT induced contraction [3]: inactive

SMILES: O=C(NCCNCC(O)COc1ccc(O)cc1)N1CCOCC1 (centres unmarked) [xamoterol, xamoterol fumarate]
pEC50 (isolated rat left atrium): 8.30 | Emax (isolated rat left atrium; read-out: α, left atrium (force)): 33% | Agonistic action relative to isoproterenol (beta-1; % that of isoproterenol): 40% | Tolerability (in words) (beta-1; vs prenalterol): better tolerated | pEC50 [1]: 8.33 | Emax ([1]; read-out: α, right atrium (frequency)): 76% | Hemodynamic effects (in words) (anesthetized dog): negligible
